{"source": "ChEMBL document CHEMBL3351985", "about": "“Prophylactic treatment of asthma by an ozone scavenger in a mouse model” (2015)", "key": {"Mus musculus [1]": {"organism": "Mus musculus", "experiment": "Antiasthmatic activity in ovalbumin-sensitized BALB/c mouse allergy model assessed as reduction in BAL aldehyde level compound treated at 4 g through inhalation prior to ovalbumin challenge", "type": "functional, organism-based"}, "Mus musculus [2]": {"organism": "Mus musculus", "experiment": "Antiasthmatic activity in ovalbumin-sensitized BALB/c mouse allergy model assessed as reduction in lung aldehyde level compound treated at 4 g through inhalation prior to ovalbumin challenge", "type": "functional, organism-based"}, "Mus musculus [3]": {"organism": "Mus musculus", "experiment": "Antiasthmatic activity in ovalbumin-sensitized BALB/c mouse allergy model assessed as reduction in spleen tissue aldehyde level compound treated at 4 g through inhalation prior to ovalbumin challenge", "type": "functional, organism-based"}, "Mus musculus [4]": {"organism": "Mus musculus", "experiment": "Antiasthmatic activity in ovalbumin-sensitized BALB/c mouse allergy model assessed as reduction in neutrophil count compound treated at 4 g through inhalation prior to ovalbumin challenge (reference value: 43.1 /mm3)", "type": "functional"}, "Mus musculus [5]": {"organism": "Mus musculus", "experiment": "Antiasthmatic activity in ovalbumin-sensitized BALB/c mouse allergy model assessed as reduction in eosinophil count compound treated at 4 g through inhalation prior to ovalbumin challenge (reference value: 11 /mm3)", "type": "functional"}, "Mus musculus [6]": {"organism": "Mus musculus", "experiment": "Antiasthmatic activity in ovalbumin-sensitized BALB/c mouse allergy model assessed as reduction in peribronchial inflammatory cell infiltration compound treated at 4 g through inhalation prior to ovalbumin challenge by hematoxylin eosin staining method relative to control", "type": "functional", "set-up": "scale not given: the % may be the effect or the level left"}, "Mus musculus [7]": {"organism": "Mus musculus", "experiment": "Antiasthmatic activity in ovalbumin-sensitized BALB/c mouse allergy model assessed as reduction in perivascular inflammatory cell infiltration compound treated at 4 g through inhalation prior to ovalbumin challenge by hematoxylin eosin staining method relative to control", "type": "functional", "set-up": "scale not given: the % may be the effect or the level left"}, "Mus musculus [8]": {"organism": "Mus musculus", "experiment": "Antiasthmatic activity in ovalbumin-sensitized BALB/c mouse allergy model assessed as reduction in occlusion of the airway diameter by mucus compound treated at 4 g through inhalation prior to ovalbumin challenge by hematoxylin eosin staining method relative to control", "type": "functional"}, "Mus musculus [9]": {"organism": "Mus musculus", "experiment": "Antiasthmatic activity in ovalbumin-sensitized BALB/c mouse allergy model assessed as reduction in epithelial cell mucus metaplasia compound treated at 4 g through inhalation prior to ovalbumin challenge by hematoxylin eosin staining method relative to control", "type": "functional"}, "Mus musculus [10]": {"organism": "Mus musculus", "experiment": "Antiasthmatic activity in ovalbumin-sensitized BALB/c mouse allergy model assessed as reduction in sub-epithelial fibrosis compound treated at 4 g through inhalation prior to ovalbumin challenge by hematoxylin eosin staining method relative to control", "type": "functional", "set-up": "scale not given: the % may be the effect or the level left"}}, "note": "Calls of active or inactive are those of the source. The calls are words filed in the database; no cut-off is given here."}
{"smiles": "C=C(C)[C@H]1CC=C(C)CC1", "note": "[D-LIMONENE]", "values": [{"measurement": "Activity", "setting": "Mus musculus [1]", "result": "Active"}, {"measurement": "Activity", "setting": "Mus musculus [2]", "result": "Active"}, {"measurement": "Activity", "setting": "Mus musculus [3]", "result": "Active"}, {"measurement": "Activity", "setting": "Mus musculus [4]", "result": "29.8 /mm3"}, {"measurement": "Activity", "setting": "Mus musculus [5]", "result": "12.6 /mm3"}, {"measurement": "Activity", "setting": "Mus musculus [6]", "result": 40, "unit": "%"}, {"measurement": "Activity", "setting": "Mus musculus [7]", "result": 40, "unit": "%"}, {"measurement": "fold change (FC)", "setting": "Mus musculus [8]", "result": 2}, {"measurement": "fold change (FC)", "setting": "Mus musculus [9]", "result": 5}, {"measurement": "Activity", "setting": "Mus musculus [10]", "result": 20, "unit": "%"}]}
